The subject of the series is CCRIS mutagenicity, Ames/micronucleus/aberration tests. The series is described as follows: CCRIS mutagenicity studies.
Where [1] appears, read: Test System: AMES SALMONELLA TYPHIMURIUM, Strain/Indicator: TA98, Metabolic Activation: NONE, Method: STANDARD PLATE.
The mark [2] stands for this setting: Test System: AMES SALMONELLA TYPHIMURIUM, Strain/Indicator: TA98, Metabolic Activation: RAT, LIVER, S-9, AROCLOR 1254, Method: STANDARD PLATE.
Where [3] appears, read: Test System: AMES SALMONELLA TYPHIMURIUM, Strain/Indicator: TA100, Metabolic Activation: NONE, Method: STANDARD PLATE.
The mark [4] stands for this setting: Test System: AMES SALMONELLA TYPHIMURIUM, Strain/Indicator: TA100, Metabolic Activation: RAT, LIVER, S-9, AROCLOR 1254, Method: STANDARD PLATE.
The mark [5] stands for this setting: Test System: AMES SALMONELLA TYPHIMURIUM, Strain/Indicator: TA102, Metabolic Activation: NONE, Method: STANDARD PLATE.
Where [6] appears, read: Test System: AMES SALMONELLA TYPHIMURIUM, Strain/Indicator: TA102, Metabolic Activation: RAT, LIVER, S-9, AROCLOR 1254, Method: STANDARD PLATE.
Where [7] appears, read: Test System: AMES SALMONELLA TYPHIMURIUM, Strain/Indicator: TA100, Metabolic Activation: NONE, Method: PREINCUBATION
Setting [8] is: Test System: AMES SALMONELLA TYPHIMURIUM, Strain/Indicator: TA1535, Metabolic Activation: NONE, Method: PREINCUBATION
Where [9] appears, read: Test System: AMES SALMONELLA TYPHIMURIUM, Strain/Indicator: TA98, Metabolic Activation: NONE, Method: PREINCUBATION

Structures are written as SMILES. Activity calls are given as the source filed them. The rule behind the calls is not given here.

`CC(C)(C)NC[C@H](O)COc1ccccc1C1CCCC1`: the mutagenic call was “active; positive” under setting [1]; “inactive; negative” under setting [2]; “inactive; negative” under setting [3]; “inactive; negative” under setting [4]; “inactive; negative” under setting [5]; “inactive; negative” under setting [6].

On to `c1ccc(-c2ccc(CCC3CO3)cc2)cc1` (centres undefined), for which the mutagenic call was “inactive; negative” under setting [7]; “active; positive” under setting [3]; “inactive; negative” (Test System: AMES SALMONELLA TYPHIMURIUM, Strain/Indicator: TA1535, Metabolic Activation: NONE, Method: STANDARD PLATE).

As to `CCOCC=O`, the mutagenic call is, setting by setting: (Test System: AMES SALMONELLA TYPHIMURIUM, Strain/Indicator: TA97A, Metabolic Activation: NONE, Method: STANDARD PLATE) “inactive; negative”; (Test System: AMES SALMONELLA TYPHIMURIUM, Strain/Indicator: TA97A, Metabolic Activation: RAT, LIVER, S-9, AROCLOR 1254, Method: STANDARD PLATE) “inactive; negative”; under setting [1], “inactive; negative”; under setting [2], “inactive; negative”; under setting [3], “inactive; negative”; under setting [4], “inactive; negative”. Further, the mutagenic call by setting is: under setting [5], “inactive; negative”; under setting [6], “inactive; negative”.

`CCN=[N+](C)[O-]`: the mutagenic call is “inactive; negative” (Test System: AMES SALMONELLA TYPHIMURIUM, Strain/Indicator: TA1535, Metabolic Activation: HAMSTER, LIVER, S-9, AROCLOR 1254, Method: PREINCUBATION); “inactive; negative” under setting [8]; “inactive; negative” (Test System: AMES SALMONELLA TYPHIMURIUM, Strain/Indicator: TA1535, Metabolic Activation: RAT, LIVER, S-9, AROCLOR 1254, Method: PREINCUBATION).

Regarding `Cc1cccc(C2CO2)c1` (centres undefined), the mutagenic call (Test System: E. COLI, Strain/Indicator: WP2 UVRA, Metabolic Activation: NONE, Method: STANDARD PLATE) was “active; positive”.

As for `CCN(CC)C(=S)SSC(=S)N(CC)CC`, the mutagenic call reads like this: (Test System: AMES SALMONELLA TYPHIMURIUM, Strain/Indicator: TA98, Metabolic Activation: HAMSTER, LIVER, S-9, AROCLOR 1254 (10%), Method: PREINCUBATION) “inactive; negative”; under setting [9], “inactive; negative”; (Test System: AMES SALMONELLA TYPHIMURIUM, Strain/Indicator: TA98, Metabolic Activation: RAT, LIVER, S-9, AROCLOR 1254 (10%), Method: PREINCUBATION) “inactive; negative”; (Test System: AMES SALMONELLA TYPHIMURIUM, Strain/Indicator: TA100, Metabolic Activation: HAMSTER, LIVER, S-9, AROCLOR 1254 (10%), Method: PREINCUBATION) “inactive; negative”; under setting [7], “inactive; negative”; (Test System: AMES SALMONELLA TYPHIMURIUM, Strain/Indicator: TA100, Metabolic Activation: RAT, LIVER, S-9, AROCLOR 1254 (10%), Method: PREINCUBATION) “inactive; negative”. Further, the mutagenic call (Test System: AMES SALMONELLA TYPHIMURIUM, Strain/Indicator: TA1535, Metabolic Activation: HAMSTER, LIVER, S-9, AROCLOR 1254 (10%), Method: PREINCUBATION) is “inactive; negative”; the mutagenic call under setting [8] is “inactive; negative”; the mutagenic call (Test System: AMES SALMONELLA TYPHIMURIUM, Strain/Indicator: TA1535, Metabolic Activation: RAT, LIVER, S-9, AROCLOR 1254 (10%), Method: PREINCUBATION) was “inactive; negative”; the mutagenic call (Test System: AMES SALMONELLA TYPHIMURIUM, Strain/Indicator: TA1537, Metabolic Activation: HAMSTER, LIVER, S-9, AROCLOR 1254 (10%), Method: PREINCUBATION) was “inactive; negative”; the mutagenic call (Test System: AMES SALMONELLA TYPHIMURIUM, Strain/Indicator: TA1537, Metabolic Activation: NONE, Method: PREINCUBATION) was “inactive; negative”; the mutagenic call (Test System: AMES SALMONELLA TYPHIMURIUM, Strain/Indicator: TA1537, Metabolic Activation: RAT, LIVER, S-9, AROCLOR 1254 (10%), Method: PREINCUBATION) was “inactive; negative”. Further, under “Test System: MOUSE LYMPHOMA, Strain/Indicator: L5178Y (TK+/TK-), Metabolic Activation: NONE, Method: SUSPENSION/PLATE”, the mutagenic call was “active; positive”.

Regarding `CC(C)Oc1ccc(Nc2ccccc2)cc1`, the mutagenic call (End Point: IN VITRO CHROMOSOMAL ABERRATIONS, Test System: CHINESE HAMSTER LUNG CELLS (CHL), Metabolic Activation: RAT, LIVER, S-9, KC-400) is “inactive; negative; authors describe results as inconclusive”; the mutagenic call (End Point: IN VITRO CHROMOSOMAL ABERRATIONS, Test System: CHINESE HAMSTER OVARY CELLS (CHO), Metabolic Activation: NONE) was “inactive; negative”; the mutagenic call (End Point: IN VITRO CHROMOSOMAL ABERRATIONS, Test System: CHINESE HAMSTER OVARY CELLS (CHO), Metabolic Activation: RAT, LIVER, S-9, AROCLOR 1254) is “inactive; negative”; the mutagenic call (End Point: IN VITRO CHROMOSOMAL ABERRATIONS, Test System: CHO-LB CELLS, Metabolic Activation: NONE) is “inactive; negative”; the mutagenic call (End Point: IN VITRO CHROMOSOMAL ABERRATIONS, Test System: CHO-LB CELLS, Metabolic Activation: RAT, LIVER, S-9, AROCLOR 1254) was “inactive; negative”; the mutagenic call (Test System: AMES SALMONELLA TYPHIMURIUM, Strain/Indicator: TA97, Metabolic Activation: HAMSTER, LIVER, S-9, AROCLOR 1254 (10 OR 30%), Method: PREINCUBATION) was “inactive; negative”. For the same molecule, the mutagenic call by setting is: (Test System: AMES SALMONELLA TYPHIMURIUM, Strain/Indicator: TA97, Metabolic Activation: NONE, Method: PREINCUBATION) “inactive; negative”; (Test System: AMES SALMONELLA TYPHIMURIUM, Strain/Indicator: TA97, Metabolic Activation: RAT, LIVER, S-9, AROCLOR 1254 (10 OR 30%), Method: PREINCUBATION) “inactive; negative”; (Test System: AMES SALMONELLA TYPHIMURIUM, Strain/Indicator: TA98, Metabolic Activation: HAMSTER, LIVER, S-9, AROCLOR 1254 (10 OR 30%), Method: PREINCUBATION) “inactive; negative”; under setting [9], “inactive; negative”; (Test System: AMES SALMONELLA TYPHIMURIUM, Strain/Indicator: TA98, Metabolic Activation: RAT, LIVER, S-9, AROCLOR 1254 (10 OR 30%), Method: PREINCUBATION) “inactive; negative”; (Test System: AMES SALMONELLA TYPHIMURIUM, Strain/Indicator: TA100, Metabolic Activation: HAMSTER, LIVER, S-9, AROCLOR 1254 (10 OR 30%), Method: PREINCUBATION) “inactive; negative”. Besides, the mutagenic call was “inactive; negative” under setting [7]; “inactive; negative” (Test System: AMES SALMONELLA TYPHIMURIUM, Strain/Indicator: TA100, Metabolic Activation: RAT, LIVER, S-9, AROCLOR 1254 (10 OR 30%), Method: PREINCUBATION); “inactive; negative” (Test System: AMES SALMONELLA TYPHIMURIUM, Strain/Indicator: TA1535, Metabolic Activation: HAMSTER, LIVER, S-9, AROCLOR 1254 (10 OR 30%), Method: PREINCUBATION); “inactive; negative” under setting [8]; “inactive; negative” (Test System: AMES SALMONELLA TYPHIMURIUM, Strain/Indicator: TA1535, Metabolic Activation: RAT, LIVER, S-9, AROCLOR 1254 (10 OR 30%), Method: PREINCUBATION).

Regarding `CC[C@@]1(O)C[C@H](O[C@H]2C[C@H](N(C)C)[C@H](O[C@H]3C[C@H](O)[C@H](O[C@@H]4O[C@@H](C)C(=O)C=C4N)[C@H](C)O3)[C@H](C)O2)c2c(cc3c(c2O)C(=O)c2c(O)ccc(O)c2C3=O)[C@H]1C(=O)OC`, the mutagenic call is, setting by setting: (Test System: AMES SALMONELLA TYPHIMURIUM, Strain/Indicator: TA98, Metabolic Activation: NONE) “active; positive”; (Test System: AMES SALMONELLA TYPHIMURIUM, Strain/Indicator: TA98, Metabolic Activation: RAT, LIVER, S-9, AROCLOR 1254) “active; positive”.

As to `C1=CC2=C3OC3c3cc4c(cc3C2C=C1)c1c(c2ccccc24)O1` (centres undefined), under setting [3], the mutagenic call was “active; positive”.

(Values after PubChem BioAssay AID1259407 (Chemical Carcinogenesis Research Information System (CCRIS), 2018).)
